Data: patent US8361998B2, “Compounds and their use as IKACh blockers” (AstraZeneca AB, priority 2010, dated 2013)
Read-outs that look alike come from different tables or passages of the source.

Molecular target: T1, human cardiac ion channel proteins hKir3.1/Kir3.4 (Homo sapiens, UniProt P48544+P48549)
T1 construct: expressed in transfected cells
T1 sequence (P48549 1-501): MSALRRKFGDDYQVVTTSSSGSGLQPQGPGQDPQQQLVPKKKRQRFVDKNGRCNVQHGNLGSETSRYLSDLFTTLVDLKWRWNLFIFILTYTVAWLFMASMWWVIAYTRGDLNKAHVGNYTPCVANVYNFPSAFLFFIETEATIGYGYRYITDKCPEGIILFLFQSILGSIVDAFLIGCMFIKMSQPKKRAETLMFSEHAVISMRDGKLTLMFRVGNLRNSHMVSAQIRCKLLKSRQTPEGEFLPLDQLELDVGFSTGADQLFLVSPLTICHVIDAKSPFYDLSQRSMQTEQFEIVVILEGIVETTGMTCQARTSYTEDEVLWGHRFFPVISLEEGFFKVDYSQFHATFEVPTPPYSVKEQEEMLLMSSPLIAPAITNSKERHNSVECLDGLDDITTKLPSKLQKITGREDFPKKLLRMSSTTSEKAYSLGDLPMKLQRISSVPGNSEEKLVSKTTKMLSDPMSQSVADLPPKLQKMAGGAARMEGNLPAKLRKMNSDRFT
T1 sequence (P48544 1-419): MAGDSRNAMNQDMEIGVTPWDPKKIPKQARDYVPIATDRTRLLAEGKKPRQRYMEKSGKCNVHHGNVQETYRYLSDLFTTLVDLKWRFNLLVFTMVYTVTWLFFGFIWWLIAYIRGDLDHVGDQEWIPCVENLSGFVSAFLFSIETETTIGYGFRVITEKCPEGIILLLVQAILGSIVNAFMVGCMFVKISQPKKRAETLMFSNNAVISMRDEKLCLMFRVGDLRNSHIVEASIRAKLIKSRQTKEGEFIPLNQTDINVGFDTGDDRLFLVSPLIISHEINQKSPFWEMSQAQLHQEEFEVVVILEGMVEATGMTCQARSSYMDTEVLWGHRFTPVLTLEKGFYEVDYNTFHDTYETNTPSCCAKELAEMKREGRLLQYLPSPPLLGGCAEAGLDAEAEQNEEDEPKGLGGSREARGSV
Assay: Atomic Absorption Screening (AAS) Rb efflux assay of hKir3.1/Kir3.4 block, carbachol/high K+ stimulated, 10-pt or 7-pt CR
Format: cell-based
Source text: Human KCNJ3 encoding Kir3.1 (Genbank acc. No. NM_002239) was inserted between EcoRI and NotI in the pIRESneo3 vector (Clontech Laboratories, Inc. CA, USA). Human KCNJ5 encoding Kir3.4 (Genbank Acc. No. BC069482) was inserted between EcoR1 and Not1 in the pIRESpuro3 vector (Clontech Laboratories, Inc. CA, USA). A Kozak sequence (GCCACC) was introduced before the start codon ATG of both constructs. Chinese Hamster Ovary K1, CHO-FLP/IN, cells (Invitrogen Corporation, Paisley, UK) were transfected simultaneously using Lipofectamine 2000 reagent (Invitrogen Corporation, Paisley, UK). Geneticin 600 μg/mL (Invitrogen Corporation, Paisley, UK) and puromycin 3 μg/mL (BD Bioscience) were added to the cell culture medium 3 days after transfection. Two weeks after transfection, colonies had appeared and were manually picked and sorted to one cell per well in a 96-well plate. Cells were then tested for Kir3.1 and Kir3.4 expression using membrane potential assay, Western Blot and Immunocytochemistry. […] The cell line was re-sorted by flow cytometry and resulting clones were assayed electrophysiologically using IonWorks (Molecular Devices) and later validated on the Q-Patch (Sophion A/S).
The stable cell line was cultured in DMEM/F12 with Glutamax 1 (Invitrogen Corporation, Paisley, UK), supplemented with foetal bovine serum 10%, puromycin 3 μg/mL, hygromycin 300 μg/mL and geneticin 600 μg/mL (Invitrogen Corporation, Paisley, UK). Care was taken not to seed cells at too low density and cells were passaged at approximately 70-80% confluency. Cells used for patch-clamp experiments were prepared by washing using PBS (—Mg, —Ca^2+), 2 times, detached using Accutase (Sigma). For Q-Patch measurements, storage medium was prepared fresh by adding 1.25 mL of 1M Hepes (GibcoBRL) to 50 mL CHO-SFM II medium (GibcoBRL) and detached cells were diluted to 2 million cells/mL in this medium. Frozen (Cryopreserved) cells were used for Atomic Absorption Screening (AAS) and plated poly-D-lysine 384-well plates (Greiner) at a density of 11,000-13,000 cells/well, the day before assay.
The blocking effects of compounds on the human cardiac ion channel proteins hKir3.1/Kir3.4 were assessed in CHO-K1 cells stably expressing the channel proteins using Atomic Absorption Screening (AAS). Cells were washed and then loaded with 25 μL Rb-loading buffer for three hours at 37° C. After that, the cells were washed again and 25 μL of diluted compound was transferred to the cell plate, incubated for 5 min in RT, and then […] of Carbachol/high K+ (10 μM carbachol and 20 mM KCl final concentration) buffer added to stimulate the cells and open the Kir3.1/Kir3.4 channel. After 10 min stimulation, […] of the supernatant was transferred to a new microplate, 45 μL washing buffer added to the supernatant and the level of Rb in the supernatant was then measured using an Aurora ICR 8000. Compounds were studied at concentrations ranging from 0.003 to 67 μmol/L (dilutions by three, 10-pt CR) or from 0.037 to 27 μmol/L (dilutions by three, 7-pt CR).
Stock solutions of compounds were prepared in DMSO 10 mM and stored at RT. Buffers used for AAS contained (in mM): HEPES 20, NaCl 150, MgCl2 1.0, CaCl2 2.0 and NaH2PO4 0.8 and Glucose 10 (wash 1) or KCl 5 and Glucose 5 (wash 2) or KCl 5 (dilution buffer). The High K^+ channel opener buffer contained (in mM): HEPES 20, NaCl 130, MgCl2 1.0, CaCl2 2.0 and NaH2PO4 0.8 together with KCl 20. Solutions used for Q-Patch (extracellular) in mM: NaCl 145, KCl 4, CaCl2 2.0, MgCl2 1.0, HEPES 10 and glucose 10. The high K^+ extra cellular solution used for Q-Patch in mM: NaCl 96.7, KCl 50.7, CaCl2 2.0, MgCl2 1.0, HEPES 10 and glucose 10 while the intra cellular solution used was (in mM): KCl 120, CaCl2 5.374, MgCl2 1.75, EGTA 10, KOH 3.125, HEPES 10, Na2ATP 4.
Results are given as mean IC50 of >4 replicates (10-pt CR, AAS) or >3 replicates (7-pt CR, AAS). Some of the data in Table 1 are mean values of two or more runs. […]

[1] = 7-pt CR (0.037 to 27 μmol/L), AAS Rb efflux, CHO-K1 cells expressing hKir3.1/Kir3.4, mean of >3 replicates, read-out: IKACh IC50 7-pt CR, AAS
[2] = 10-pt CR (0.003 to 67 μmol/L), AAS Rb efflux, CHO-K1 cells expressing hKir3.1/Kir3.4, mean of >4 replicates, read-out: IKACh IC50 10-pt CR, AAS
[3] = printed as IC50 >67 μM in the 10-pt CR assay or IC50 >27 μM in the 7-pt CR assay, assay format per compound not stated, read-out: IC50

For `CC(C)[C@@H](CN1CC[C@H](O)C1)N(C)C(=O)c1cc(F)cc(C(F)(F)F)c1` [Example 16.44, 3-Fluoro-N-[(1S)-1-{[(3S)-3-hydroxypyrrolidin-1-yl]methyl}-2-methylpropyl]-N-methyl-5-(trifluoromethyl)benzamide], the IC50 [1] was 8.4 µM.

`CC(C)[C@@H](CN1CCCC1)N(C)C(=O)c1c(F)cccc1F` [Example 16.24, 2,6-Difluoro-N-methyl-N-[(1S)-2-methyl-1-(pyrrolidin-1-ylmethyl)propyl]benzamide] gave an IC50 [1] greater than 27 µM and an IC50 [2] of 9.8 µM.

`COC1CCN(C[C@H](C(C)C)N(C)C(=O)c2ccc(Br)cc2)CC1` [Example 3.6, (S)-4-Bromo-N-(1-(4-methoxypiperidin-1-yl)-3-methylbutan-2-yl)-N-methylbenzamide] showed an IC50 [2] of 3.2 µM.

For `CC(CN1CCCC1)N(C)C(=O)c1cccc(Cl)c1` (centres unmarked) [3-Chloro-N-methyl-N-(1-methyl-2-pyrrolidin-1-ylethyl)benzamide], the IC50 [3] was greater than 27 µM.

In the case of `Cc1ccc(C(=O)N(C)[C@H](CN2CCCC2)C2CC2)cc1C` [Example 13.2, (S)-N-(1-Cyclopropyl-2-(pyrrolidin-1-yl)ethyl)-N,3,4-trimethyl-benzamide], the IC50 [2] is reported as 3.9 µM.

In the case of `CC(C)[C@@H](CN1C[C@H](O)[C@@H](O)C1)N(C)C(=O)c1ccc(C#N)cc1` [4-Cyano-N-((S)-1-((3S,4S)-3,4-dihydroxypyrrolidin-1-yl)-3-methylbutan-2-yl)-N-methylbenzamide], the IC50 [3] is reported as greater than 27 µM.

`CC(C)[C@@H](CN1CCC(F)(F)C1)N(C)C(=O)c1ccc(Cl)cc1` [(S)-4-Chloro-N-(1-(3,3-difluoropyrrolidin-1-yl)-3-methylbutan-2-yl)-N-methylbenzamide] was tested, and the IC50 [3] was greater than 27 µM.

With `CN(C(=O)c1ccc(F)c(Cl)c1)C(CN1CC(O)C1)C1CCCC1` (single isomer, unassigned) [32.7, isomer 1] the IC50 [2] was 0.075 µM.

Work on `CCC[C@@H](CN1CC(O)C1)N(C)C(=O)c1ccc(C#N)cc1` [Example 8.9, (S)-4-Cyano-N-(1-(3-hydroxyazetidin-1-yl)pentan-2-yl)-N-methylbenzamide] yielded an IC50 [2] of 8.6 µM.

`CC(C)[C@@H](CN1CC[C@H](O)C1)N(C)C(=O)c1ccc(F)cc1Cl` [Example 10.1, (3S)-1-((S)-2-(2-Chloro-4-fluoro-N-methylbenzamido)-3-methylbutyl)-3-hydroxypyrrolidinium 2,3-dihydroxysuccinate] showed an IC50 [1] of 3.7 µM and an IC50 [2] of 6.1 µM.

Work on `CC(C)[C@@H](CN1CCCCC1)N(C)C(=O)c1ccc(F)cc1Cl` [Example 16.26, 2-Chloro-4-fluoro-N-methyl-N-[(1S)-2-methyl-1-(piperidin-1-yl-methyl)propyl]benzamide] yielded an IC50 [1] of 4.8 µM.

For `CCN(C(=O)c1ccc(Cl)cc1)[C@H](CN1CCC1)C(C)C` [Example 11, (S)—N-(1-(Azetidin-1-yl)-3-methylbutan-2-yl)-4-chloro-N-ethylbenzamide], the IC50 [2] was 5.6 µM.

`CC(C)[C@@H](CN1CCCCC1)N(C)C(=O)c1cc(F)cc(F)c1F` [2,3,5-Trifluoro-N-methyl-N-[(1S)-2-methyl-1-(piperidin-1-ylmethyl)propyl]benzamide] gave an IC50 [3] greater than 27 µM.

Compound `CC(C)[C@@H](CN1CC[C@@H](O)C1)N(C)C(=O)c1ccc(F)c(Cl)c1` [Example 17.6, 3-Chloro-4-fluoro-N—((S)-1-((R)-3-hydroxypyrrolidin-1-yl)-3-methylbutan-2-yl)-N-methylbenzamide] has an IC50 [2] of 12 µM.

With `COc1cc(C(=O)N(C)[C@H](CN2CCC(OC)CC2)C(C)C)ccc1C` [Example 3.11, (S)-3-Methoxy-N-(1-(4-methoxypiperidin-1-yl)-3-methylbutan-2-yl)-N,4-dimethylbenzamide] the IC50 [2] was 7.2 µM.

`CC(C)[C@@H](CN1CCCC1)N(C)C(=O)c1ccccc1F` [Example 16.18, (S)-2-Fluoro-N-methyl-N-(3-methyl-1-(pyrrolidin-1-yl)butan-2-yl)benzamide] showed an IC50 [1] of 11 µM.

`CC(C)c1ccc(C(=O)N(C)[C@H](CN2CCCC2)C(C)C)cc1` [Example 16.49, (S)-4-Isopropyl-N-methyl-N-(3-methyl-1-(pyrrolidin-1-yl)butan-2-yl)benzamide] showed an IC50 [1] of 7.1 µM and an IC50 [2] of 9.7 µM.
